The source of these data is ChEMBL document CHEMBL3758136, “Design, synthesis and in vitro activity of phidianidine B derivatives as novel PTP1B inhibitors with specific selectivity” (Bioorg Med Chem Lett, 2016).

Experiment [1] deals with Receptor-type tyrosine-protein phosphatase F (Homo sapiens, UniProt P10586). As to the kind of experiment: Inhibition of human LAR as hydrolysis of pNPP after 2 mins.
Experiment [2] has as its target T1, Tyrosine-protein phosphatase non-receptor type 1 (Homo sapiens, UniProt P18031).
T1 sequence (P18031 whole entry): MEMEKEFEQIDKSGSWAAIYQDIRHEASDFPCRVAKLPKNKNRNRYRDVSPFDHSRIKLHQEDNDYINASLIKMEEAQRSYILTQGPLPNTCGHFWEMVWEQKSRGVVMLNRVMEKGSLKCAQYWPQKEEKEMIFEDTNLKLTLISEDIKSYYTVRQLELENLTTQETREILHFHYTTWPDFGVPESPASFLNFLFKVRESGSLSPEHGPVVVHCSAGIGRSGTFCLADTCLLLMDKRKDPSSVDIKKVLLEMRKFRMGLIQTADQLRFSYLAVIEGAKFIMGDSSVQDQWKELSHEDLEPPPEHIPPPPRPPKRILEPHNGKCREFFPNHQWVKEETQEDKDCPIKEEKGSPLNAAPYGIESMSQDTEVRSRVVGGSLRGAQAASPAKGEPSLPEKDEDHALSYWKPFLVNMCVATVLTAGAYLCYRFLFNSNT
The experiment in a line: Inhibition of recombinant human PTP1B catalytic domain assessed as hydrolysis of pNPP after 2 mins.

The target of experiment [3] is T2, Tyrosine-protein phosphatase non-receptor type 11 (Homo sapiens, UniProt Q06124).
T2 sequence (Q06124 whole entry): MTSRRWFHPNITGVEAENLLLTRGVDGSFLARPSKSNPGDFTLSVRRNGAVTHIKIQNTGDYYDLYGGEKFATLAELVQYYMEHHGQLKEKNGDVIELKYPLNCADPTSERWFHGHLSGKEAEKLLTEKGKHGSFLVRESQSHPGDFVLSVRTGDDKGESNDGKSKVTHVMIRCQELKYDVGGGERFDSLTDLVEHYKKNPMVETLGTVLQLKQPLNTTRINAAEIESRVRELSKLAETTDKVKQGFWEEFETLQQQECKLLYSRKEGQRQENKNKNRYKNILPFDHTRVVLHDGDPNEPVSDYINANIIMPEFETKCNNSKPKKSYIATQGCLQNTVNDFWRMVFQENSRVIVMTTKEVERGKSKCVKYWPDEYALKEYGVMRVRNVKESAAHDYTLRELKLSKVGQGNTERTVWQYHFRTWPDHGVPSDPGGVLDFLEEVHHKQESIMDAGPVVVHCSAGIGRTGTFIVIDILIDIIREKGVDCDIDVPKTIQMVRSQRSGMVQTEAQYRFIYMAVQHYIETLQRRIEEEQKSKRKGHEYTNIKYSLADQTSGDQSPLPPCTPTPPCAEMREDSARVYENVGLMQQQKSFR
The experiment in a line: Inhibition of human SHP2 as hydrolysis of pNPP after 2 mins.

Experiment [4] concerns the target T3, Tyrosine-protein phosphatase non-receptor type 2 (Homo sapiens, UniProt P17706).
T3 sequence (P17706 whole entry): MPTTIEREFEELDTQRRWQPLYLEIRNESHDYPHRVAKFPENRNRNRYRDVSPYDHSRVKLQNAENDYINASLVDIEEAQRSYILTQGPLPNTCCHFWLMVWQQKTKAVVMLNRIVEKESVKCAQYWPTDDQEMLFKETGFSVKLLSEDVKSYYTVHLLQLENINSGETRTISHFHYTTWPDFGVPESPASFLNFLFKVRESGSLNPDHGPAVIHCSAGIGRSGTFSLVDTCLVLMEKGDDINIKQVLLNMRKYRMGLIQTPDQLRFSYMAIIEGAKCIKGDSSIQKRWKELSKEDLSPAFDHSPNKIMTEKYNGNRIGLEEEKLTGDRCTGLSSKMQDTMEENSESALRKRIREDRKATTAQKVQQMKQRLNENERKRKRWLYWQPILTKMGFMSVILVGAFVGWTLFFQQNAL
The experiment in a line: Inhibition of human TCPTP as hydrolysis of pNPP after 2 mins.

Experiment [5] concerns the target Tyrosine-protein phosphatase non-receptor type 6 (Homo sapiens, UniProt P29350). As to the kind of experiment: Inhibition of human SHP1 as hydrolysis of pNPP after 2 mins.

Chain of Tyrosine-protein phosphatase non-receptor type 6 (P29350 whole entry): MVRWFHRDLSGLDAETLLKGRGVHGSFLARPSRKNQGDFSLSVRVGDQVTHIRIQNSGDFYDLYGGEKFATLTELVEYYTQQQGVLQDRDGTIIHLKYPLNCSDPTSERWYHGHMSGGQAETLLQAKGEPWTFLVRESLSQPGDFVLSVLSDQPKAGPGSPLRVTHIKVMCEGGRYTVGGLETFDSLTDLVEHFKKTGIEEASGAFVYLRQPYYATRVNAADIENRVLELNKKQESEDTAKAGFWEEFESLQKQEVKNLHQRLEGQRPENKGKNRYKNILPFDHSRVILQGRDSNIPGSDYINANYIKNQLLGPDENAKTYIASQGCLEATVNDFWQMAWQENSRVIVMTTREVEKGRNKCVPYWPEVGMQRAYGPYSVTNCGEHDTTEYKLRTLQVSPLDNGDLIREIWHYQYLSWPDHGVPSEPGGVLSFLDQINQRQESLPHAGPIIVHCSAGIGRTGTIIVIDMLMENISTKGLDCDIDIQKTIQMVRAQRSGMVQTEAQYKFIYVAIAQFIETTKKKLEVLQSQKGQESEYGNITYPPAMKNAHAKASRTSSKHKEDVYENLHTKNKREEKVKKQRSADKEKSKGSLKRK
Chain of Receptor-type tyrosine-protein phosphatase F (P10586 whole entry): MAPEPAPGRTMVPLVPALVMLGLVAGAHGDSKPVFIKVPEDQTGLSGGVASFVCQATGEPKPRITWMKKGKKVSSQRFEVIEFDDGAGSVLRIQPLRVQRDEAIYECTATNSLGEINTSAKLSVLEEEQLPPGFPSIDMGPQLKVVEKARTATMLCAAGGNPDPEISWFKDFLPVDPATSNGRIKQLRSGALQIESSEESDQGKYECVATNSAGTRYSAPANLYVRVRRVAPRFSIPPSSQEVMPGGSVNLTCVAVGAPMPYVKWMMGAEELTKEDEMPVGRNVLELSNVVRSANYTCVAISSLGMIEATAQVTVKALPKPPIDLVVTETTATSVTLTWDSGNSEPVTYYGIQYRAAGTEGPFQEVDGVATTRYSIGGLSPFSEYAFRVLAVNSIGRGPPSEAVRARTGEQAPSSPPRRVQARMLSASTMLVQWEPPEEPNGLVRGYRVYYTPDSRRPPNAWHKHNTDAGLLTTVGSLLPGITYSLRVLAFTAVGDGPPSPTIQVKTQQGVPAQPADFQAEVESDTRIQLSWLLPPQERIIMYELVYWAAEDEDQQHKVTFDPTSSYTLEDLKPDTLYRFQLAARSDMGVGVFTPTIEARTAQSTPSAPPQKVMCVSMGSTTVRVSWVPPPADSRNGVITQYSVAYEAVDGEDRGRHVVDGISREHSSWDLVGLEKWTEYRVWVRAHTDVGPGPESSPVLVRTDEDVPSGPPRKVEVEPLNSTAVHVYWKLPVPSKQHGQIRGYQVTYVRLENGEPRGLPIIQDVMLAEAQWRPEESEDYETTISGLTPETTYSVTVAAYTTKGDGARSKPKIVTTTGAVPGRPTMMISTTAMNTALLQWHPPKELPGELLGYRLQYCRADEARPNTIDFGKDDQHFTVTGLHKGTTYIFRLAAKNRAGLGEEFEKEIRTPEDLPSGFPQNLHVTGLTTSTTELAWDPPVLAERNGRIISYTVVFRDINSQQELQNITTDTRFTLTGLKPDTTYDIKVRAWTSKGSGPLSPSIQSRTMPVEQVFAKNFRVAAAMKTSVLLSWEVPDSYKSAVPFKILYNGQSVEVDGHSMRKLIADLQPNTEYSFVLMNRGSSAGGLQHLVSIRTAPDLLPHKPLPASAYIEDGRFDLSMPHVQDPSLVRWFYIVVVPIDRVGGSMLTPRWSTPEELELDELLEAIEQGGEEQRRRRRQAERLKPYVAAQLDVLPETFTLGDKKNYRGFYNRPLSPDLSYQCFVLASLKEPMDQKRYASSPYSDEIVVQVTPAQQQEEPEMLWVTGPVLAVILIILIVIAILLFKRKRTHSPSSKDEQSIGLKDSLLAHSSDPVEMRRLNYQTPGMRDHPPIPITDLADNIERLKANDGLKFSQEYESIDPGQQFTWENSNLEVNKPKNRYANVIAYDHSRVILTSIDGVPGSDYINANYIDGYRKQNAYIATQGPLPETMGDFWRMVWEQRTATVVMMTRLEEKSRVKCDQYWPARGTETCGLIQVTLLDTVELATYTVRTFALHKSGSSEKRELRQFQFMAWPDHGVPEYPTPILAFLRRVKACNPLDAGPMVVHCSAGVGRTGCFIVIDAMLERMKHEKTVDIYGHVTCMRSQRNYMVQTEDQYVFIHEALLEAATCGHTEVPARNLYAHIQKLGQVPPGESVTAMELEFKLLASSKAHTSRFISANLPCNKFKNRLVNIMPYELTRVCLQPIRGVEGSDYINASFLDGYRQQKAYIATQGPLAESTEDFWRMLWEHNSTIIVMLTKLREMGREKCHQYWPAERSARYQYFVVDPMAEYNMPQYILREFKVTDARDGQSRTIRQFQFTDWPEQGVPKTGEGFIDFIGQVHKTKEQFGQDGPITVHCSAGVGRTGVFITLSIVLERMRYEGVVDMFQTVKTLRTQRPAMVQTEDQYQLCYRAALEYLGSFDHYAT

As for `Nc1ccc(-c2ccc(-c3noc(Cc4c[nH]c5ccccc45)n3)s2)cc1`, the IC50 in experiment [1], in experiment [2], in experiment [3], in experiment [4] and in experiment [5] was more than 120 µM throughout.

For the compound `Nc1ccc(-c2cccc(-c3noc(Cc4c[nH]c5ccccc45)n3)c2)cc1`, the IC50 in experiment [1], in experiment [2], in experiment [3], in experiment [4] and in experiment [5] was more than 120 µM each time.

On to `Brc1ccc(-c2noc(Cc3c[nH]c4ccccc34)n2)s1`, for which the half-maximal inhibitory concentration (IC50) in experiment [1] was more than 120 µM; in experiment [2], 14.1 µM; in experiment [3], more than 120 µM; in experiment [4], more than 120 µM; in experiment [5], more than 120 µM.

As for `Cc1ccccc1-c1ccc(-c2noc(Cc3c[nH]c4ccccc34)n2)s1`, the half-maximal inhibitory concentration (IC50) was more than 120 µM in experiment [1]; 16.8 µM in experiment [2]; more than 120 µM in experiment [3]; more than 120 µM in experiment [4]; more than 120 µM in experiment [5].

For `CCCCc1ccc(-c2ccc(-c3noc(Cc4c[nH]c5ccccc45)n3)s2)cc1`, the IC50 in experiment [1] is more than 120 µM; in experiment [2] it was 8.96 µM; in experiment [3], more than 120 µM; in experiment [4], more than 120 µM; in experiment [5], more than 120 µM.

Consider `Brc1cccc(-c2noc(Cc3c[nH]c4ccccc34)n2)c1`, for which the half-maximal inhibitory concentration (IC50) in experiment [1] was more than 120 µM; in experiment [2], 19.7 µM; in experiment [3] it was more than 120 µM; in experiment [4], more than 120 µM; in experiment [5], more than 120 µM.

For `CCCc1ccc(-c2ccc(-c3noc(Cc4c[nH]c5ccccc45)n3)s2)cc1`, the IC50 in experiment [1] is more than 120 µM; in experiment [2], 12.5 µM; in experiment [3], more than 120 µM; in experiment [4] it was more than 120 µM; in experiment [5], more than 120 µM.

Turning to `CCCCc1ccc(-c2cccc(-c3noc(Cc4c[nH]c5ccccc45)n3)n2)cc1`, the IC50 in experiment [1] is more than 120 µM; in experiment [2], 9.66 µM; in experiment [3], more than 120 µM; in experiment [4], more than 120 µM; in experiment [5] it was more than 120 µM.

Regarding `CCOc1ccc(-c2cccc(-c3noc(Cc4c[nH]c5ccccc45)n3)c2)cc1`, the IC50 is more than 120 µM in experiment [1]; 15.9 µM in experiment [2]; more than 120 µM in experiment [3]; more than 120 µM in experiment [4]; more than 120 µM in experiment [5].

In the case of `COC(=O)CCCOc1ccc(-c2ccc(-c3noc(Cc4c[nH]c5ccccc45)n3)s2)cc1`, the IC50 in experiment [1], in experiment [2], in experiment [3], in experiment [4] and in experiment [5] was more than 120 µM throughout.

As to `CCc1ccc(-c2ccc(-c3noc(Cc4c[nH]c5ccccc45)n3)s2)cc1`, the IC50 in experiment [1] was more than 120 µM; in experiment [2], 13.1 µM; in experiment [3], more than 120 µM; in experiment [4], more than 120 µM; in experiment [5] it was more than 120 µM.

Consider `CCCOc1ccc(-c2cccc(-c3noc(Cc4c[nH]c5ccccc45)n3)c2)cc1`, for which the IC50 in experiment [1] was more than 120 µM; in experiment [2] it was 18.4 µM; in experiment [3], more than 120 µM; in experiment [4] it was more than 120 µM; in experiment [5], more than 120 µM.

`Cc1ccccc1-c1cccc(-c2noc(Cc3c[nH]c4ccccc34)n2)c1`: the IC50 is more than 120 µM in experiment [1]; 24.4 µM in experiment [2]; more than 120 µM in experiment [3]; more than 120 µM in experiment [4]; more than 120 µM in experiment [5].

As to `Cc1cccc(-c2ccc(-c3noc(Cc4c[nH]c5ccccc45)n3)s2)c1`, the 50% inhibitory concentration (IC50) in experiment [1], in experiment [2], in experiment [3], in experiment [4] and in experiment [5] was more than 120 µM each time.

For `CCOc1ccc(-c2cccc(-c3noc(Cc4c[nH]c5ccccc45)n3)n2)cc1`, the IC50 in experiment [1] was more than 120 µM; in experiment [2], 31.5 µM; in experiment [3], more than 120 µM; in experiment [4] it was more than 120 µM; in experiment [5], more than 120 µM.

As to `Cc1cccc(-c2cccc(-c3noc(Cc4c[nH]c5ccccc45)n3)c2)c1`, the half-inhibitory concentration (IC50) was more than 120 µM in experiment [1]; 15.8 µM in experiment [2]; more than 120 µM in experiment [3]; more than 120 µM in experiment [4]; more than 120 µM in experiment [5].

Turning to `CCCOc1ccc(-c2cccc(-c3noc(Cc4c[nH]c5ccccc45)n3)n2)cc1`, the IC50 in experiment [1] is more than 120 µM; in experiment [2] it was 9.66 µM; in experiment [3], more than 120 µM; in experiment [4], more than 120 µM; in experiment [5], more than 120 µM.

`CCOc1ccc(-c2ccc(-c3noc(Cc4c[nH]c5ccccc45)n3)s2)cc1`: the IC50 in experiment [1] was more than 120 µM; in experiment [2], 17.3 µM; in experiment [3], more than 120 µM; in experiment [4], more than 120 µM; in experiment [5], more than 120 µM.

Regarding `Brc1cccc(-c2noc(Cc3c[nH]c4ccccc34)n2)n1`, the 50% inhibitory concentration (IC50) in experiment [1], in experiment [2], in experiment [3], in experiment [4] and in experiment [5] was more than 120 µM throughout.

In the case of `Oc1ccc(-c2cccc(-c3noc(Cc4c[nH]c5ccccc45)n3)c2)cc1`, the IC50 was more than 120 µM in experiment [1]; 21.9 µM in experiment [2]; more than 120 µM in experiment [3]; more than 120 µM in experiment [4]; more than 120 µM in experiment [5].

In the case of `CCCOc1ccc(-c2ccc(-c3noc(Cc4c[nH]c5ccccc45)n3)s2)cc1`, the IC50 in experiment [1] is more than 120 µM; in experiment [2], 13.7 µM; in experiment [3], more than 120 µM; in experiment [4] it was more than 120 µM; in experiment [5] it was more than 120 µM.

As for `Cc1cccc(-c2cccc(-c3noc(Cc4c[nH]c5ccccc45)n3)n2)c1`, the IC50 in experiment [1] is more than 120 µM; in experiment [2], 21.7 µM; in experiment [3], more than 120 µM; in experiment [4], more than 120 µM; in experiment [5], more than 120 µM.

On to `CCCc1ccc(-c2cccc(-c3noc(Cc4c[nH]c5ccccc45)n3)c2)cc1`, for which the IC50 in experiment [1], in experiment [2], in experiment [3], in experiment [4] and in experiment [5] was more than 120 µM each time.

As to `Cc1ccccc1-c1cccc(-c2noc(Cc3c[nH]c4ccccc34)n2)n1`, the IC50 in experiment [1] is more than 120 µM; in experiment [2], 26.1 µM; in experiment [3], more than 120 µM; in experiment [4], more than 120 µM; in experiment [5] it was more than 120 µM.

In the case of `COC(=O)CCCOc1ccc(-c2cccc(-c3noc(Cc4c[nH]c5ccccc45)n3)c2)cc1`, the IC50 in experiment [1], in experiment [2], in experiment [3], in experiment [4] and in experiment [5] was more than 120 µM each time.

Turning to `CCCCc1ccc(-c2cccc(-c3noc(Cc4c[nH]c5ccccc45)n3)c2)cc1`, the IC50 in experiment [1] was more than 120 µM; in experiment [2], 8.8 µM; in experiment [3], more than 120 µM; in experiment [4] it was more than 120 µM; in experiment [5] it was more than 120 µM.

`CC1(C)CC[C@]2(C(=O)O)CC[C@]3(C)C(=CC[C@@H]4[C@@]5(C)CC[C@H](O)C(C)(C)[C@@H]5CC[C@]43C)[C@@H]2C1` [OLEANOLIC_ACID]: the IC50 in experiment [1] and in experiment [3] was more than 120 µM each time.

A word on the IC50: it is the concentration that gives 50% inhibition.
